Columns and labels:
[1] = Growth inhibition, sulforhodamine B (SRB) assay; type: cell-based; settings: human, salts
Procedure: (§1) Growth inhibition was measured in three human ovarian carcinoma cell lines (A2780, CH1, and SKOV-3) and one human cervix carcinoma cell line (A431) using the sulforhodamine B (SRB) assay. Briefly, between 3000 and 6000 cells were seeded into the wells of 96-well microtiter plates and allowed to attach overnight. Compounds (acid addition and quaternary dimethiodide salts) were dissolved at 500 μM in water and immediately added to wells in quadruplicate at final concentrations of 0.05, 0.25, 1, 5 and 25 μM. Following an incubation period of 96 hr, remaining cells were fixed with ice-cold 10% w/v trichloroacetic acid (30 min) and stained with 0.4% SRB in 1% v/v acetic acid (15 min). Mean absorbance at 540 nm for each drug concentration was expressed as a percentage of the control untreated well absorbance, and IC50 values (concentration required to inhibit cell growth by 50%) were determined for each agent.

telomerase = test: Modified telomeric repeat amplification protocol (TRAP) assay, cell-free; type: biochemical; settings: extracts from A2780 human ovarian carcinoma cells, salts, read-out: telIC50
Procedure: The ability of compounds to inhibit telomerase in a cell-free assay was assessed with a modified TRAP assay using extracts from exponentially growing A2780 human ovarian carcinoma cells. The TRAP assay was performed in 2 steps: (a) telomerase-mediated extension of the forward primer (TS: 5′-AATCCGTCGAGCAGAGTT, Oswel Ltd., Southampton, UK) contained in a 40 μL reaction mix comprising TRAP buffer (20 mM Tris-HCl (pH 8.3), 68 mM KCl, 1.5 mM MgCl2, 1 mM EGTA, 0.05% v/v Tween 20), 0.05 μg bovine serum albumin, 50 μM of each deoxynucleotide triphosphate, 0.1 μg TS primer, and […] of [α-^32P]dCTP (Amersham pic, UK). Protein (40 ng or 20 ng) was then incubated with the reaction mix+agent (acid addition and quaternary dimethiodide salts) at final concentrations of up to 50 μM for 20 min at 25° C. A lysis buffer (no protein) control, heat-inactivated protein control, and 50% protein (20 ng or 10 ng) control were included in each assay; and (b) while heating at 80° C. in a PCR block of a thermal cycler (Hybaid, UK) for 5 min to inactivate telomerase activity, 0.1 μg of reverse CX primer (3′-[…]-5′) and 2 Units of Taq DNA polymerase (“red hot”, Advanced Biotechnologies) were added. A 3-step PCR was then performed: 94° C. for 30 s, 50° C. for 30 s, and 72° C. for 1 min for 31 cycles. Telomerase-extended PCR products in the presence or absence of compounds were then determined either by electrophoretic separation using 8% w/w acrylamide denaturing gels and analysis by phosphorimaging or autoradiography, or by harvesting on Whatman filters (25 mm glass microfibre) and analysis by liquid scintillation counting.

[2] = Growth inhibition, SRB assay, mean over the four cell lines; type: cell-based; settings: human, mean of A2780, CH1, SKOV-3, A431, 96 hr incubation, salts, read-out: Cytotoxicity - IC50, mean value for the four (4) cell lines
Procedure: as §1

[3] = A431 cervix carcinoma cells, A431, 96 hr incubation, read-out: Cytotoxicity - IC50 A431
[4] = A2780 ovarian carcinoma cells, A2780, 96 hr incubation, read-out: Cytotoxicity - IC50 A2780
[5] = CH1 ovarian carcinoma cells, CH1, 96 hr incubation, read-out: Cytotoxicity - IC50 CH1
[6] = SKOV-3 ovarian carcinoma cells, SKOV-3, 96 hr incubation, read-out: Cytotoxicity - IC50 SKOV-3

SMILES	IC50 (telomerase)	IC50 at 96 h [1, 3]	IC50 at 96 h [1, 4]	IC50 at 96 h [1, 5]	IC50 at 96 h [1, 6]	IC50 at 96 h [2]
CCN(CC)CCCCNc1ccc2cc3ccc(NCCCCN(CC)CC)cc3nc2c1 [SB-ACI-28, 3,6-Bis[(4-diethylamino)butylamino]-acridine]	205 nM					6300 nM
c1cc2cc3ccc(NCCCN4CCCCC4)cc3nc2cc1NCCCN1CCCCC1 [SB-ACI-25, 3,6-Bis[(3-piperidino)propylamino]acridine]	218 nM					500 nM
c1cc2cc3ccc(NCCCN4CCCC4)cc3nc2cc1NCCCN1CCCC1 [SB-ACI-23, 3,6-Bis[(3-pyrolidino)propylamino]acridine]	181 nM					1600 nM
c1cc2cc3ccc(NCCCCN4CCCC4)cc3nc2cc1NCCCCN1CCCC1 [SB-ACI-26, 3,6-Bis[(4-pyrolidino)butylamino]acridine]	153 nM					2500 nM

Further molecules by falling IC50 (telomerase), results first:

IC50 (telomerase)	SMILES	IC50 at 96 h [1, 3]	IC50 at 96 h [1, 4]	IC50 at 96 h [1, 5]	IC50 at 96 h [1, 6]	IC50 at 96 h [2]
16800 nM	c1ccc(NCCCNc2ccc3cc4ccc(NCCCNc5ccccc5)cc4nc3c2)cc1 [SB-ACI-27, 3,6-Bis[(3-phenylamino)propylamino]acridine]					1700 nM
590 nM	CC(C)N(CCNc1ccc2cc3ccc(NCCN(C(C)C)C(C)C)cc3nc2c1)C(C)C [SB-ACI-06, 3,6-Bis[(N,N-diisoproyplaminoethyl)amino]acridine]	1000 nM	400 nM	600 nM	1300 nM	
540 nM	CCN(CC)CCNc1ccc2cc3ccc(NCCN(CC)CC)cc3nc2c1 [SB-ACI-05, 3,6-Bis[(N,N-diethylaminoethyl)amino]acridine]	200 nM	100 nM	200 nM	700 nM	
480 nM	CN(C)CCNc1ccc2cc3ccc(NCCN(C)C)cc3nc2c1 [SB-ACI-10, 3,6-Bis[(N,N-dimethylaminoethyl)amino]acridine]	200 nM	200 nM	100 nM	200 nM	
222 nM	CCN(CC)CCCNc1ccc2cc3ccc(NCCCN(CC)CC)cc3nc2c1 [SB-ACI-24, 3,6-Bis[(3-diethylamino)propylamino]acridine]					1800 nM
200 nM	CN(C)CCCNc1ccc2cc3ccc(NCCCN(C)C)cc3nc2c1 [SB-ACI-04, 3,6-Bis[(N,N-dimethylaminopropyl)amino]acridine]	700 nM	1800 nM	2000 nM	3900 nM	

Reference: US7205311B2, “Therapeutic acridone and acridine compounds” (Cancer Research Technology Limited, priority 2002, dated 2007)
